Experimental data: US12686673B2 (Blueprint Medicines Corporation, priority 2020, dated 2026)
Where two headings read alike, the source gives them in different places.

Assays:
Format in all cases: cell-based
[1] = molecular target: EGFR(D770_N771insSVD) expressing Ba/F3 stable cell line (Homo sapiens, UniProt P00533, DUP768-770, cells depend on it); experiment: Cellular proliferation (Alamar Blue) assay, EGFR D770_N771insSVD Ba/F3; conditions: 72 hr, read-out: D770 IC50
Outline: (§1)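 Ba/F3 cells stably expressing the mutant were seeded at 15,000 per well in RPMI with 10% FBS and left 16-18 hours at 37 degree Celsius. Compounds were then added in 3-fold serial dilutions (final 10-0.0005 μM) for 72 hr, and viability was read with Alamar Blue after 3 hours.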

[2] = molecular target: EGFR (A767_dupASV) expressing Ba/F3 stable cell line (Homo sapiens, UniProt P00533, DUP767-769, cells depend on it); experiment: Cellular proliferation (Alamar Blue) assay, EGFR A767_dupASV Ba/F3; conditions: 72 hr, read-out: A767 IC50
Chain of EGFR (A767_dupASV) expressing Ba/F3 stable cell line (P00533 with tags, fused parts or gaps DUP767-769): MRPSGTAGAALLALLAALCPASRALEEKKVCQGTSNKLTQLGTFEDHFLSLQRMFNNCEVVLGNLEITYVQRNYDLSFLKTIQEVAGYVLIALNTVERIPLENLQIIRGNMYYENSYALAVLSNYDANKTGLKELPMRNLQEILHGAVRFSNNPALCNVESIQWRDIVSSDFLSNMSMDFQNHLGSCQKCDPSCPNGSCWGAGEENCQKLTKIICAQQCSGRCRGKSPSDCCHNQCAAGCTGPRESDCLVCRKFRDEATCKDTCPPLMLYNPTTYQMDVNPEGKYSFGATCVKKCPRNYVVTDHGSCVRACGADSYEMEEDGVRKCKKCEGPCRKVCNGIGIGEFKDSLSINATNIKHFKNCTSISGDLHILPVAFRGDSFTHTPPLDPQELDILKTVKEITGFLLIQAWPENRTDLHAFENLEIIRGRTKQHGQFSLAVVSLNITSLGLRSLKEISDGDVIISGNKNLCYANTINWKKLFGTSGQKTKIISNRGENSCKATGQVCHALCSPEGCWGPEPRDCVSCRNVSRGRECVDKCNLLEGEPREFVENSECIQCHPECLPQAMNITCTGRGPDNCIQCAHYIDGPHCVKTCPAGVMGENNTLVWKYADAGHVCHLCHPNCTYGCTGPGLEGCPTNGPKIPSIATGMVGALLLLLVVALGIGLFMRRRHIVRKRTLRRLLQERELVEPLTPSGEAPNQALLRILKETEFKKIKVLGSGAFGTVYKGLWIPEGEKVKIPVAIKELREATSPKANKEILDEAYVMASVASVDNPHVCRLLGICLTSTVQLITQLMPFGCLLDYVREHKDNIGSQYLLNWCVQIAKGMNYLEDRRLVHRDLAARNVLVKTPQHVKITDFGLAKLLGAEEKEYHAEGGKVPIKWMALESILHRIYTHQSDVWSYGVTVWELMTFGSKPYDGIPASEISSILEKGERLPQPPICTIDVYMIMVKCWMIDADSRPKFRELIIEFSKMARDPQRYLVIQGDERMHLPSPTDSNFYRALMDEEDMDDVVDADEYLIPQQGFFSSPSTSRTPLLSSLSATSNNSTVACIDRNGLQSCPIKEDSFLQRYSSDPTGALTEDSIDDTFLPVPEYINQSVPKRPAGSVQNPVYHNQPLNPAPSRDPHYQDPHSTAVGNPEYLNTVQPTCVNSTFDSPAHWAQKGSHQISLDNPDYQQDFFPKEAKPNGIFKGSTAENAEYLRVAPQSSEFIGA
Outline: as §1

A431 cells = experiment: Cellular proliferation (Alamar Blue) assay, A431
[3] = molecular target: HER2 (A775_G776insYVMA) expressing Ba/F3 stable cell line (Homo sapiens, UniProt P04626, DUP772-775, cells depend on it); experiment: Cellular proliferation (Alamar Blue) assay, HER2 A775_G776insYVMA Ba/F3; conditions: 72 hr, read-out: YVMA IC50
Chain of HER2 (A775_G776insYVMA) expressing Ba/F3 stable cell line (P04626 with tags, fused parts or gaps DUP772-775): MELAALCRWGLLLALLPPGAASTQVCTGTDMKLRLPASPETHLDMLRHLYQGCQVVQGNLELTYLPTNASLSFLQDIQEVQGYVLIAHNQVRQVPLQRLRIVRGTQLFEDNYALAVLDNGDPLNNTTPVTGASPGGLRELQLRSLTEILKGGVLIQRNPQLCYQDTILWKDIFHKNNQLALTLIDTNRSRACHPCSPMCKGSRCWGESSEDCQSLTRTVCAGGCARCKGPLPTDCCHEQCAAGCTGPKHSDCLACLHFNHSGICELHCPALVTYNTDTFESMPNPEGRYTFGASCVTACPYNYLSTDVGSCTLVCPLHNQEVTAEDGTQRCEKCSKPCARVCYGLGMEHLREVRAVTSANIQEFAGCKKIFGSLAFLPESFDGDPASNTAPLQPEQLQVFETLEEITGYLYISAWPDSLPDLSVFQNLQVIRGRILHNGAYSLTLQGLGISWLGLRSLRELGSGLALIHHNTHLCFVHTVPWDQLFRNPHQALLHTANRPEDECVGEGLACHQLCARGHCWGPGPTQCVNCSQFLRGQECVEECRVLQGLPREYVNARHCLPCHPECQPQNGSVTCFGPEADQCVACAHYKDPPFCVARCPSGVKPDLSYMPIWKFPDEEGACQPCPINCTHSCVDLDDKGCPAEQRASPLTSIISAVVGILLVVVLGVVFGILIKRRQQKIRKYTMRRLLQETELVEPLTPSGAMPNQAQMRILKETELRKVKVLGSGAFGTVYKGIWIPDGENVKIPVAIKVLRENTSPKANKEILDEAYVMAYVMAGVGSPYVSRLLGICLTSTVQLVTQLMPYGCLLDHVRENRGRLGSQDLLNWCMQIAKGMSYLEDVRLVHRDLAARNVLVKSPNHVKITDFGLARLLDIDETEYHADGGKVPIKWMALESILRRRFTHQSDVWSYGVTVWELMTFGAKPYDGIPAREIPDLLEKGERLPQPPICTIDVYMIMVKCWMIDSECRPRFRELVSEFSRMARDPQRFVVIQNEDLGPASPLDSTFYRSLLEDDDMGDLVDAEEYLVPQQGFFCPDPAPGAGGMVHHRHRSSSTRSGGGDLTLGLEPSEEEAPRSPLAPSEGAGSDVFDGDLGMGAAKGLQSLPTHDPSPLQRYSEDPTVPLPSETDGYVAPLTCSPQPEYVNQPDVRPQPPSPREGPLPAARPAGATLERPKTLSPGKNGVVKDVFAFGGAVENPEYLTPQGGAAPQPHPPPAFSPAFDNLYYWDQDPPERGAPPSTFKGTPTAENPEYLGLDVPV
Outline: as §1

[4] = Homo sapiens, A-431; A431 cells, Alamar Blue, 72 hr; read-out: A431 IC50
[5] = Homo sapiens, A-431; A431 cells, 72 hr, Alamar Blue; read-out: A431 IC50

Chain of EGFR(D770_N771insSVD) expressing Ba/F3 stable cell line (P00533 with tags, fused parts or gaps DUP768-770): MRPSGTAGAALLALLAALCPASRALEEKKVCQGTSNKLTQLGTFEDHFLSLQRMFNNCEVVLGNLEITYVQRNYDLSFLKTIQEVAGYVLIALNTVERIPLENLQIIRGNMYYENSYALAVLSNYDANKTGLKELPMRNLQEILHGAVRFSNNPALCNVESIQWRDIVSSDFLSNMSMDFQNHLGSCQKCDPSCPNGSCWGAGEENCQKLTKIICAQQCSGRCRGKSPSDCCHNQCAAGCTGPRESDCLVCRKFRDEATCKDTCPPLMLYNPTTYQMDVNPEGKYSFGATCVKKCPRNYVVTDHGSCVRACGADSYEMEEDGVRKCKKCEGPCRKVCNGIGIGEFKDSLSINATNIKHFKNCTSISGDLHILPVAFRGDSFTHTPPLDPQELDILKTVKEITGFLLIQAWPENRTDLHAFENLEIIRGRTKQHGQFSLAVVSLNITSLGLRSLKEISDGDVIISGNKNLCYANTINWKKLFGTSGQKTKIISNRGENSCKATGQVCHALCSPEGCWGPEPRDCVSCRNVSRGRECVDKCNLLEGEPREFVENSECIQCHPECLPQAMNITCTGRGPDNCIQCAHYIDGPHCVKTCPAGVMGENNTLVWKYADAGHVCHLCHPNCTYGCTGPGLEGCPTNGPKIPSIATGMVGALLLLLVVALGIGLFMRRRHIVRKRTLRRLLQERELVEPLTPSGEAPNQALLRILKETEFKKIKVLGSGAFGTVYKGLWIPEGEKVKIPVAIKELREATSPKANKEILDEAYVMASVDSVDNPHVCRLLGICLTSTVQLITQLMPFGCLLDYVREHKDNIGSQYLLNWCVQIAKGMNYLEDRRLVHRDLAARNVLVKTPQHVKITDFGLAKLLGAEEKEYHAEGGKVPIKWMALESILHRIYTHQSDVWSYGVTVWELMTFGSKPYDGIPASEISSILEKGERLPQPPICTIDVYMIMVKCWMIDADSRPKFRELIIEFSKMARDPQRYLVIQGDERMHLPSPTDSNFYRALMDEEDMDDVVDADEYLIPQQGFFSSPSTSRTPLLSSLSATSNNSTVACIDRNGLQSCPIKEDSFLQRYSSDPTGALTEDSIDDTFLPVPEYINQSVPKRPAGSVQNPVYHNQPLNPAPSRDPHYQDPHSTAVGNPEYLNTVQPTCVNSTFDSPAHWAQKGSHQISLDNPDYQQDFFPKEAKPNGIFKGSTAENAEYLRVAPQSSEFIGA

Structure (SMILES) | GI50 [1] [µM] | GI50 [2] [µM] | IC50 (A431 cells; [4]) [µM] | GI50 [3] [µM] | IC50 (A431 cells; [5]) [µM]
C=CC(=O)Nc1ccc(F)c(-c2nc(Nc3cnn(C)c3)ncc2Cl)c1 [Compound 159, N-(3-{5-chloro-2-[(1-methyl-1H-pyrazol-4-yl)amino]pyrimidin-4-yl}-4-fluorophenyl)prop-2-enamide] | 9.55 | 2.78 | > 10 | > 10 | 
CN(C)C/C=C/C(=O)Nc1ccc(F)c(-c2nc(Nc3cnn(C)c3)ncc2Cl)c1 [Compound 160, (E)-N-(3-(5-chloro-2-((1-methyl-1H-pyrazol-4-yl)amino)pyrimidin-4-yl)-4-fluorophenyl)-4-(dimethylamino)but-2-enamide] | > 10 | > 10 | > 10 | > 10 | 
CN(C)C/C=C/C(=O)Nc1ccc(F)c(Nc2nc(Nc3cnn(C)c3)ncc2C#Cc2ccccc2)c1 [Compound 162, (E)-4-(dimethylamino)-N-(4-fluoro-3-((2-((1-methyl-1H-pyrazol-4-yl)amino)-5-(phenylethynyl)pyrimidin-4-yl)amino)phenyl)but-2-enamide] | 1.85 | 0.656 | 2.85 | 1.88 | 
C=CC(=O)Nc1ccc(C(=O)Nc2ccccc2)c(Nc2ccnc(Nc3cnn(C)c3)n2)c1 [Compound 164, 4-acrylamido-2-((2-((1-methyl-1H-pyrazol-4-yl)amino)pyrimidin-4-yl)amino)-N-phenylbenzamide] | > 10 | > 10 | > 10 | 9.49 | 
C=CC(=O)Nc1ccc(Cl)c(Nc2ccnc(Nc3cnn(C)c3)n2)c1 [Compound 165, N4-(5-amino-2-chlorophenyl)-N2-(1-methyl-1H-pyrazol-4-yl)pyrimidine-2,4-diamineprop-2-enoyl chloride] | > 10 | > 10 | > 10 | 9.93 | 
C=CC(=O)Nc1ccc(F)c(Oc2nc(Nc3cnn(C)c3)ncc2Cl)c1 [Compound 166, N-(3-((5-chloro-2-((1-methyl-1H-pyrazol-4-yl)amino)pyrimidin-4-yl)oxy)-4-fluorophenyl)acrylamide] | 1.32 | 1.25 | > 10 | 1.69 | 
C=CC(=O)Nc1ccc(F)c(Oc2nc(Nc3cnn(CCO)c3)ncc2Cl)c1 [Compound 167, N-(3-((5-chloro-2-((1-(2-hydroxyethyl)-1H-pyrazol-4-yl)amino)pyrimidin-4-yl)oxy)-4-fluorophenyl)acrylamide] | 2.15 | 1.33 | > 10 | 1.75 | 
C=CC(=O)Nc1ccc(OC)c(Oc2nc(Nc3cnn(C4CCN(C)CC4)c3)ncc2Cl)c1 [Compound 170, N-(3-((5-chloro-2-((1-(1-methylpiperidin-4-yl)-1H-pyrazol-4-yl)amino)pyrimidin-4-yl)oxy)-4-methoxyphenyl)acrylamide] | > 10 | > 10 | > 10 | 9.71 | 
C=CC(=O)Nc1ccc(OC)c(Oc2nc(Nc3cnn(C)c3)ncc2Cl)c1 [Compound 172, N-[3-({5-chloro-2-[(1-methyl-1H-pyrazol-4-yl)amino]pyrimidin-4-yl}oxy)-4-methoxyphenyl] prop-2-enamide] | > 10 | > 10 | > 10 | > 10 | 
C=CC(=O)Nc1cccc(F)c1CNc1nc(Nc2cnn(C)c2)ncc1Cl [Compound 173, N-(2-(((5-chloro-2-((1-methyl-1H-pyrazol-4-yl)amino)pyrimidin-4-yl)amino)methyl)-3-fluorophenyl)acrylamide] | 9.78 | > 10 | > 10 | 2 | 
C=CC(=O)Nc1ccc(-c2ccccc2)c(Nc2ccnc(Nc3cnn(C)c3)n2)c1 [Compound 175, N-[2-({2-[(1-methyl-1H-pyrazol-4-yl)amino]pyrimidin-4-yl}amino)-[1,1′-biphenyl]-4-yl]prop-2-enamide] | > 10 | > 10 | > 10 | > 10 | 
CN(C)C/C=C/C(=O)Nc1ccc(-c2ccccc2)c(Nc2ccnc(Nc3cnn(C)c3)n2)c1 [Compound 176, (E)-4-(dimethylamino)-N-(2-((2-((1-methyl-1H-pyrazol-4-yl)amino)pyrimidin-4-yl)amino)-[1,1′-biphenyl]-4-yl)but-2-enamide] | > 10 | 8.02 | > 10 | > 10 | 
C=CC(=O)Nc1ccc(-c2ccccc2)c(Nc2nc(Nc3cnn(C)c3)ncc2Cl)c1 [Compound 177, N-(2-((5-chloro-2-((1-methyl-1H-pyrazol-4-yl)amino)pyrimidin-4-yl)amino)-[1,1′-biphenyl]-4-yl)acrylamide] | > 10 | > 10 | > 10 | > 10 | 
CN(C)C/C=C/C(=O)Nc1ccc(C#Cc2ccccc2)c(Nc2nc(Nc3cnn(C)c3)ncc2Cl)c1 [Compound 179, (E)-N-(3-((5-chloro-2-((1-methyl-1H-pyrazol-4-yl)amino)pyrimidin-4-yl)amino)-4-(phenylethynyl)phenyl)-4-(dimethylamino)but-2-enamide] | > 10 | > 10 | > 10 | 4.03 | 
C=CC(=O)Nc1ccc(F)c(Nc2cc(Nc3cnn(C)c3)ncc2-c2ccc(C(F)(F)F)cc2)c1 [Compound 210, N-[4-fluoro-3-({2-[(1-methyl-1H-pyrazol-4-yl)amino]-5-[4-(trifluoromethyl)phenyl]pyridin-4-yl}amino)phenyl]prop-2-enamide] | 2.84 | 2.9 |  | 3.58 | 4.48
C=CC(=O)Nc1ccc(F)c(N(C)c2nc(Nc3cnn(C)c3)ncc2-c2ccc(C(F)(F)F)cc2)c1 [Compound 228, N-(4-fluoro-3-(methyl(2-((1-methyl-1H-pyrazol-4-yl)amino)-5-(4-(trifluoromethyl)phenyl)pyrimidin-4-yl)amino)phenyl)acrylamide] | 0.952 | 0.891 |  | 1.25 | 4.12

Second part, the compound after the results:

GI50 [1] [µM] | GI50 [2] [µM] | IC50 (A431 cells; [4]) [µM] | GI50 [3] [µM] | IC50 (A431 cells; [5]) [µM] | Structure (SMILES)
0.288 | 0.289 | > 10 | 0.897 |  | C=CC(=O)Nc1ccc(F)c(Nc2nc(Nc3cnn(C)c3)ncc2C#Cc2ccccc2)c1 [Compound 161, N-[4-fluoro-3-({2-[(1-methyl-1H-pyrazol-4-yl)amino]-5-(2-phenylethynyl)pyrimidin-4-yl}amino)phenyl]prop-2-enamide]
0.929 | 0.904 | > 10 | 2.26 |  | C=CC(=O)Nc1ccc(F)c(Oc2nc(Nc3cnn(C4CCN(C)CC4)c3)ncc2Cl)c1 [Compound 168, N-(3-((5-chloro-2-((1-(1-methylpiperidin-4-yl)-1H-pyrazol-4-yl)amino)pyrimidin-4-yl)oxy)-4-fluorophenyl)acrylamide]
0.27 | 0.227 |  | 0.424 | 1.52 | C=CC(=O)Nc1ccc(F)c(Nc2nc(Nc3cnn(C)c3)ncc2-c2cccc(Br)c2)c1 [Compound 201, N-(3-((5-(3-bromophenyl)-2-((1-methyl-1H-pyrazol-4-yl)amino)pyrimidin-4-yl)amino)-4-fluorophenyl)acrylamide]
0.035 | 0.034 |  | 0.217 | 0.044 | C=CC(=O)Nc1cccc(Nc2nc(Nc3cnn(C)c3)ncc2-c2ccc(Br)cc2)c1F [Compound 202, N-(3-((5-(4-bromophenyl)-2-((1-methyl-1H-pyrazol-4-yl)amino)pyrimidin-4-yl)amino)-2-fluorophenyl)acrylamide]
0.093 | 0.131 |  | 0.688 | 0.028 | C=CC(=O)Nc1ccc(F)c(Nc2nc(Nc3cn(C)nc3Cl)ncc2-c2ccc(Br)cc2)c1 [Compound 204, N-(3-((5-(4-bromophenyl)-2-((3-chloro-1-methyl-1H-pyrazol-4-yl)amino)pyrimidin-4-yl)amino)-4-fluorophenyl)acrylamide]
0.039 | 0.073 |  | 0.278 | 0.132 | C=CC(=O)Nc1ccc(F)c(Nc2nc(Nc3cnn(C4COC4)c3)ncc2-c2ccc(Br)cc2)c1 [Compound 205, N-(3-((5-(4-bromophenyl)-2-((1-(oxetan-3-yl)-1H-pyrazol-4-yl)amino)pyrimidin-4-yl)amino)-4-fluorophenyl)acrylamide]
0.035 | 0.044 |  | 0.12 | 0.036 | C=CC(=O)Nc1ccc(F)c(Nc2nc(Nc3cnn(CCO)c3)ncc2-c2ccc(Br)cc2)c1 [Compound 206, N-(3-((5-(4-bromophenyl)-2-((1-(2-hydroxyethyl)-1H-pyrazol-4-yl)amino)pyrimidin-4-yl)amino)-4-fluorophenyl)acrylamide]
0.076 | 0.121 |  | 0.402 | 0.046 | C=CC(=O)Nc1ccc(F)c(Nc2nc(Nc3cn(CCN(C)C)nc3Cl)ncc2-c2ccc(Br)cc2)c1 [Compound 208, N-(3-((5-(4-bromophenyl)-2-((3-chloro-1-(2-(dimethylamino)ethyl)-1H-pyrazol-4-yl)amino)pyrimidin-4-yl)amino)-4-fluorophenyl)acrylamide]
0.312 | 0.09 |  | 3.01 | 0.617 | C=CC(=O)Nc1cc(Nc2nc(Nc3cnn(C)c3)ncc2-c2ccc(C(F)(F)F)cc2)ccc1F [Compound 238, N-(2-fluoro-5-((2-((1-methyl-1H-pyrazol-4-yl)amino)-5-(4-(trifluoromethyl)phenyl)pyrimidin-4-yl)amino)phenyl)acrylamide]
